Test results taken from article PMC7942396, “Drug Repurposing Screen for Compounds Inhibiting the Cytopathic Effect of SARS-CoV-2” (Frontiers in Pharmacology, 2021).
Counter-ions that a name gives are not always drawn. Like-named read-outs stand apart in the source and are kept apart here.

What was measured:
[1] = system: SARS-CoV-2 (USA_WA1/2020); experiment: microbe, parasite or virus in culture; type: cell-based; settings: for EC50: read-out: CPE EC50
[2] = cytotoxicity counter-assay, Vero E6 cells without virus
[3] = read-out: Cytotox CC50, cytotoxicity counter-assay, Vero E6 cells without virus
[4] = SARS-CoV-2 CPE assay, Vero E6 cells
[5] = Vero E6 cells without virus, 72 h
[6] = […], DMSO 0%, no-virus control 100%, hit confirmation
[7] = SARS-CoV-2 CPE assay, Vero E6 cells, confirmed anti-SARS-CoV-2 compounds
[8] = SARS-CoV-2 CPE assay, Vero E6 cells, efficacy

Compound	% Cytotox (Vero E6 cells; [2]) [%]	CC50 (Vero E6 cells; [3]) [µM]	CPE % Efficacy [1, 4] [%]	EC50 [1, 4] [µM]	EC50 [1, 7] [µM]	CPE % Efficacy [1, 8] [%]	further results
Cl.Cl.Fc1ccc(-c2nc(C3CCNCC3)sc2-c2ccnc(NC3CC3)n2)cc1 [DBM 1285 dihydrochloride]	61.3	11.2	56.1	12.6			
COc1cc(-c2cc(-c3ccc(N4CCNCC4)cc3)cnc2C)cc(OC)c1OC [LDN-214117]	53.6	11.2	39.2	11.2			
CC(NC(=O)[C@H](Cc1ccccc1)NC(=O)OCc1ccccc1)C(=O)CF (stereo partly shown) [Z-FA-FMK, reference compound]							% Cytotox (Vero E6 cells; [5]): <30%; CPE % Efficacy [1, 6]: 104.8%; EC50 [1]: 0.13 µM
Cl.Cl.O=S(=O)(c1cccc2ccccc12)n1ccc2ccc(N3CCN4CCCC4C3)cc21 (stereo not shown) [NPS ALX Compound 4a dihydrochloride]	93.1	12.6	100.0	12.6			
C[C@@H]1O[C@@H](O[C@@H]2[C@@H](O)[C@H](O[C@@H]3[C@@H](O)[C@@H](O)[C@H](O[C@H]4[C@H](OC(=O)[C@]56CCC(C)(C)C[C@H]5C5=CCC7[C@@]8(C)C[C@H](O)[C@H](O[C@@H]9O[C@@H](C)[C@H](O)[C@@H](O)[C@H]9O)[C@@](C)(CO)C8CC[C@@]7(C)[C@]5(C)C[C@H]6O)O[C@H](C)[C@H](O)[C@@H]4O)O[C@H]3C)OC[C@H]2O)[C@H](O)[C@H](O)[C@H]1O (stereo partly shown) [NCGC00385241]	98.7	1.91			0.85	123.9	
C=C1C(=O)O[C@H]2C3=C(C)CCC[C@]3(C)C(=O)C[C@@H]12 [NCGC00168931]	69.6	10			2.24	40.6	
C[C@H](CCC(=O)O)C[C@H](C)C[C@H](C)C(=O)/C=C(\O)[C@H](C)C[C@H](C)C/C=C/[C@@H](C)[C@@H](O)[C@@H](C)[C@@H](O)C[C@@H]1CC[C@@](C)([C@H]2CC[C@@](C)([C@@H](C)O)O2)O1 [Ionomycin(Calciumsalt)]	69.7	6.95			7.8	90.4	
CC(C)c1cnn2c(NCc3ccccc3)cc(NCCCCCCN)nc12 [BS-181]	32.0				10	83.4	
Cc1nc(Nc2cnn(C3CCNCC3)c2)nc2c1N(C)C(=O)c1cc3ccccc3cc1N2C [HTH-01-015]	40.5	12.6			11.2	95.2	
COC(=O)CC[C@@H](C)[C@H]1CC[C@H]2[C@@H]3CC[C@@H]4C[C@H](OC(C)=O)CC[C@]4(C)[C@H]3C[C@H](O)[C@]12C (racemic)	0.0		62.5	12.6			
CO[C@@H]1[C@@H](O[C@@H]2O[C@H](C)[C@@H](O[C@H]3C[C@@](C)(O)[C@@H](O)[C@H](C)O3)[C@H](N(C)C)[C@H]2O)[C@@H](CC=O)C[C@@H](C)[C@@H](O[C@H]2CC[C@H](N(C)C)[C@@H](C)O2)/C=C/C=C/C[C@@H](C)OC(=O)C[C@H]1OC(C)=O [Spiramycin II]	0.0		33.4	14.1			
C[C@H]1CC[C@@]2(OC1)O[C@H]1CC3[C@@H]4CC[C@@H]5C[C@@H](O[C@@H]6O[C@H](CO)[C@@H](O[C@@H]7O[C@H](CO[C@@H]8OC[C@@H](O)[C@H](O)[C@H]8O)[C@@H](O[C@@H]8O[C@H](CO)[C@H](O)[C@H](O)[C@H]8O)[C@H](O)[C@H]7O)[C@H](O)[C@H]6O)CC[C@]5(C)C4CC[C@]3(C)[C@H]1[C@@H]2C (stereo partly shown) [NCGC00385658]	78.8	3.4			3.03	68.4	
O=C(NCc1ccccc1)[C@H](Cc1ccccc1)NC(=O)[C@H]1O[C@@H]1C(=O)NCCc1ccc(O)cc1 [CAA-0225, reference compound]							% Cytotox (Vero E6 cells; [5]): <30%; CPE % Efficacy [1, 6]: 99.3%; EC50 [1]: 0.2 µM
Cc1cccc(Nc2nc(N[C@@H]3CCCC[C@@H]3N)ncc2C(N)=O)c1 [PRT-060318]	45.2	12.6			11.2	56.9	
Cc1cc(C)c(CNC(=O)c2cc(-c3ccc(N4CCN(C)CC4)nc3)cc3c2c(C)cn3C(C)C)c(=O)[nH]1 [GSK-503?EZH2 inhibitor]	0.0		111.9	12.6			
CC(=O)O/N=C1\C(=O)N(Cc2cc(Cl)ccc2Cl)c2ccc(Cl)cc21 [LDN-57444]					11.2	129.8	% Cytotox (Vero E6 cells): 40.6%; CC50 (Vero E6 cells): 12.6 µM
Cl.O=C1Nc2nc(-c3c(O)cccc3OCC3CC3)cc([C@@H]3CCCNC3)c2CO1 [Bay-65-1942 hydrochloride]	23.5	11.2	53.9	11.2			
Cl.Fc1ccc2c(CCNCc3cccc(OCC(F)(F)C(F)F)c3)c[nH]c2c1 [Lu AE58054 hydrochloride, reference compound]							% Cytotox (Vero E6 cells; [5]): <30%; CPE % Efficacy [1, 6]: 97.2%; EC50 [1]: 10 µM
(-)-Indolactam V	20.4	1.24			1.56	74.4	

Compound	% Cytotox (Vero E6 cells; [2]) [%]	CC50 (Vero E6 cells; [3]) [µM]	CPE % Efficacy [1, 4] [%]	EC50 [1, 4] [µM]	EC50 [1, 7] [µM]	CPE % Efficacy [1, 8] [%]	further results
CC(CN(C)C)CN1c2ccccc2Sc2ccccc21.CC(CN(C)C)CN1c2ccccc2Sc2ccccc21.O=C(O)C(O)C(O)C(=O)O (stereo not shown) [Trimeprazine tartrate]	0.0		49.5	12.6			
C(=N\Nc1nc(Nc2ccccc2)nc(N2CCOCC2)n1)/c1c[nH]c2ccccc12 [MLS000543798]	33.6	0.45			0.11	87.4	
O=C(N[C@@H](c1ccccc1)[C@@H]1CCCCN1)c1cccc(C(F)(F)F)c1Cl [SSR-504734]	15.7	7.94	31.7	14.1			
COc1cc(N2CCN(C)CC2)ccc1Nc1ncc2c(n1)N(C)c1ccccc1C(=O)N2 [XMD8-87]	32.0		88.0	11.2			
CCC(C)CNCC(=O)N1CCc2sccc2C1COc1cccc(C)c1 (stereo not shown) [RU-SKI 43]	21.3		72.7	14.1			
Cc1cc(CN)cc(C)c1NC(=O)c1ccc(-c2cc(Cl)ccc2Cl)o1 [CYM50358]	52.7				4.47	34.9	
CN1CCN(C(=O)c2ccc(Nc3nccc(-c4cccs4)n3)cc2Cl)CC1	55.6	10			11.2	71.5	
O=C(/C=C/c1ccc(Cl)cc1)N1CCC2(CC1)CN(Cc1ccc(Cl)c(Cl)c1)C(=O)O2 [GSK-682753A]	38.6	12.6	67.7	11.2			
CCN(CC)CCCS(=O)(=O)N[C@H](CCc1ccccc1)c1nc(Cc2ccc(Br)cc2)no1 [CpdD hydrochloride, reference compound]							% Cytotox (Vero E6 cells; [5]): <30%; CPE % Efficacy [1, 6]: 96.9%; EC50 [1]: 10 µM
CC(C)c1onc(-c2c(Cl)cccc2Cl)c1COc1ccc(/C=C/c2cccc(C(=O)O)c2)c(Cl)c1 [GW-4064X]	60.4		73.5	12.6			
COc1ccccc1Nc1nc(-c2sc(NC(C)=O)nc2C)cs1 [JNJ0966]	61.5	11.2			11.2	38.6	
COc1cccc(CCc2ccccc2OCC(CN(C)C)OC(=O)CCC(=O)O)c1.Cl (stereo not shown) [Sarpogrelate hydrochloride]	21.2	15.8			11.2	30.1	
COc1ccc2sc(NC(c3ccc(OC(F)F)cc3)c3ccc4cccnc4c3O)nc2c1 (stereo not shown) [KIN1408]	77.9	0.71			0.89	69.8	
C[C@@H]1O[C@@H](O[C@H]2[C@H](OC(=O)[C@]34CCC(C)(C)C[C@H]3C3=CCC5[C@@]6(C)CC[C@H](O[C@@H]7O[C@H](CO[C@@H]8OC[C@H](O)[C@H](O)[C@H]8O)[C@@H](O)[C@H](O)[C@H]7O)C(C)(C)C6CC[C@@]5(C)[C@]3(C)C[C@H]4O)OC[C@@H](O)[C@@H]2O)[C@H](O)[C@H](O[C@@H]2OC[C@](O)(CO)[C@H]2O)[C@H]1O[C@@H]1OC[C@H](O)[C@H](O[C@@H]2OC[C@@H](O)[C@H](O)[C@H]2O)[C@H]1O (stereo partly shown) [NCGC00385743]	67.2	2.14			0.95	59.8	
CCN(CC)CCCCNc1nc2cc(Cl)c(Cl)cc2nc1-c1ccc(-c2cccs2)s1 [PD-0220245]	107.5	11.2			3.55	35.5	
HBX 19818	39.1				7.94	80.9	
COc1ccc2c(c1)CN(C(=O)CCN1CCC(Cc3ccccc3)CC1)CCS2 [JTV519 Hemifumarate, reference compound]							% Cytotox (Vero E6 cells; [5]): <30%; CPE % Efficacy [1, 6]: 85.7%; EC50 [1]: 5.5 µM
O[C@@H]1[C@@H](O)[C@@H](O)CO[C@H]1O [alpha-L-Arabinopyranose, reference compound]							% Cytotox (Vero E6 cells; [5]): <30%; CPE % Efficacy [1, 6]: 104.0%; EC50 [1]: 2.4 µM
CCOC(=O)N[C@@H]1CC[C@@H]2[C@@H](C1)C[C@H]1C(=O)O[C@H](C)[C@H]1[C@H]2/C=C/c1ccc(-c2cccc(F)c2)cn1.O=S(=O)(O)O [Vorapaxar Sulfate]	32.4	12.6			4.47	57.7	
